# In the supplement of paper PMC6045584:
# ± gives the standard deviation of the averaged measurements.
# Tests used:
# [1] = compound: CN1CC[C@H](c2c(O)cc(O)c3c(=O)cc(-c4ccccc4Cl)oc23)[C@H](O)C1 [FLAVOPIRIDOL]; assay: surviving fraction relative to DMSO-only wells; higher = less growth inhibition; details: exposure time: 5 days
# How it was run: (§1)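 Surviving fraction was calculated by normalising CellTiter-Glo luminescence to the median of DMSO-only wells. Tumour cell lines in log phase were seeded in 384-well plates at 250–500 cells per well, and 24 hours later were exposed continuously for five days to inhibitors at 0.5, 1, 5, 10, 50, 100, 500 and 1000 nM.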
# [2] = compound: COc1cc2c(cc1O)CC[C@@H]1[C@@H]2CC[C@]2(C)[C@@H](O)CC[C@@H]12 [2-METHOXYESTRADIOL]; assay: as above; details: exposure time: 5 days
# How it was run: as §1
Test System,surviving fraction ([1]; 0.5 nM),surviving fraction ([1]; 1 nM),surviving fraction ([1]; 5 nM),surviving fraction ([1]; 10 nM),surviving fraction ([1]; 50 nM),surviving fraction ([1]; 100 nM),surviving fraction ([1]; 500 nM),surviving fraction ([1]; 1000 nM),surviving fraction ([2]; 0.5 nM),surviving fraction ([2]; 1 nM),surviving fraction ([2]; 5 nM),surviving fraction ([2]; 10 nM),surviving fraction ([2]; 50 nM),surviving fraction ([2]; 100 nM),surviving fraction ([2]; 500 nM),surviving fraction ([2]; 1000 nM)
SYO1 SYNOVIAL,1.02 ± 0.044,1 ± 0.064,0.972 ± 0.073,0.881 ± 0.05,0.515 ± 0.0082,0.144 ± 0.0063,0.0511 ± 0.0021,0.0522 ± 0.004,0.933 ± 0.044,0.93 ± 0.038,0.933 ± 0.017,0.961 ± 0.046,0.946 ± 0.043,0.9446 ± 0.0033,0.441 ± 0.065,0.1008 ± 0.00069
T47D BREAST,0.974 ± 0.18,1.07 ± 0.022,1.01 ± 0.2,1.11 ± 0.039,1.15 ± 0.051,0.67 ± 0.073,0.195 ± 0.0027,0.148 ± 0.0041,1 ± 0.053,1.02 ± 0.017,0.9847 ± 0.0046,1.01 ± 0.038,1.06 ± 0.062,1.087 ± 0.0062,0.783 ± 0.033,0.543 ± 0.037
U2OS BONE,1.04 ± 0.049,1.03 ± 0.042,1.1 ± 0.028,1.09 ± 0.053,0.956 ± 0.017,0.112 ± 0.015,0.033 ± 0.0017,0.03 ± 0.001,1.03 ± 0.016,1.013 ± 0.0046,1.02 ± 0.043,1.02 ± 0.017,1.06 ± 0.017,1.01 ± 0.021,0.681 ± 0.02,0.359 ± 0.033
VCAP PROSTATE,1.05 ± 0.085,1.02 ± 0.079,1.42 ± 0.065,1.52 ± 0.076,0.87 ± 0.058,0.324 ± 0.031,0.042 ± 0.01,0.051 ± 0.031,1.01 ± 0.05,0.983 ± 0.13,0.919 ± 0.054,1.1 ± 0.08,0.999 ± 0.075,1.06 ± 0.043,0.777 ± 0.069,0.231 ± 0.059
VP229 BREAST,1.13 ± 0.17,1.11 ± 0.062,1.16 ± 0.073,0.957 ± 0.12,0.564 ± 0.095,0.211 ± 0.13,0.0273 ± 0.0031,0.0273 ± 0.004,1.03 ± 0.077,1.09 ± 0.15,0.954 ± 0.093,1.04 ± 0.094,1.03 ± 0.15,1.18 ± 0.17,0.981 ± 0.058,0.801 ± 0.11
YAMATO SYNOVIAL,1.12 ± 0.068,1.08 ± 0.053,1.25 ± 0.061,1.11 ± 0.11,0.682 ± 0.082,0.306 ± 0.023,0.26 ± 0.0092,0.29 ± 0.013,1.06 ± 0.051,1.14 ± 0.052,1.08 ± 0.079,1.16 ± 0.028,1.18 ± 0.075,1.13 ± 0.11,0.521 ± 0.04,0.445 ± 0.031
ZR751 BREAST,1.28 ± 0.14,1.25 ± 0.051,1.21 ± 0.037,1.25 ± 0.033,1.108 ± 0.0081,0.453 ± 0.057,0.089 ± 0.0095,0.0853 ± 0.0065,1.06 ± 0.12,1.04 ± 0.097,1.02 ± 0.039,1.13 ± 0.058,1.06 ± 0.048,1.04 ± 0.098,1.07 ± 0.039,0.645 ± 0.11
